In ChEMBL document CHEMBL1275438, “The human CXC chemokine granulocyte chemotactic protein 2 (GCP-2)/CXCL6 possesses membrane-disrupting properties and is antibacterial” (2008):
≈ marks a conversion by molar mass, not a printed value. Calls of active or inactive are those of the source. The rule behind the calls is not given here.

Legend:
Format in all cases: functional
Escherichia coli = assay: Antibacterial activity against Escherichia coli 37.4 after 1 hr by bactericidal assay
Streptococcus pyogenes = assay: Antibacterial activity against Streptococcus pyogenes AP1 after 1 hr by bactericidal assay
Lipid bilayer [1] = assay: Induction of negatively charged DOPE/DOPG liposome disruption assessed as percent leakage after <1000 sec by spectrometry
Lipid bilayer [2] = assay: Induction of negatively charged DOPE/DOPG liposome disruption by spectrometry in presence of 150 mM sodium chloride

| SMILES | MBC (Escherichia coli) | MBC (Escherichia coli; Escherichia coli, 37.4, 1 h, read-out: MBC) | MBC (Streptococcus pyogenes) | MBC (Streptococcus pyogenes; Streptococcus pyogenes, AP1, 1 h, read-out: MBC) | Activity (Lipid bilayer [1]) | Activity (Lipid bilayer [2]) |
| --- | --- | --- | --- | --- | --- | --- |
| CC[C@H](C)[C@H](NC(=O)[C@H](CCCCN)NC(=O)[C@H](CCC(N)=O)NC(=O)[C@@H](NC(=O)[C@@H](NC(=O)[C@H](CCCCN)NC(=O)[C@H](CCCCN)NC(=O)[C@H](CC(C)C)NC(=O)[C@H](Cc1ccccc1)NC(=O)[C@@H]1CCCN1C(=O)[C@H](C)N)C(C)C)[C@@H](C)CC)C(=O)N[C@@H](CC(C)C)C(=O)N[C@@H](CC(=O)O)C(=O)N[C@@H](CO)C(=O)NCC(=O)N[C@@H](CC(N)=O)C(=O)N[C@@H](CCCCN)C(=O)N[C@@H](CCCCN)C(=O)N[C@@H](CC(N)=O)C(=O)O | 9.5 µM (≈ 20.3 µg/mL) | 5.6 µM (≈ 12 µg/mL) | 9.5 µM (≈ 20.3 µg/mL) | 5.7 µM (≈ 12.2 µg/mL) | – | – |
| CC[C@H](C)[C@H](NC(=O)[C@H](CCCCN)NC(=O)[C@H](CCC(N)=O)NC(=O)[C@@H](NC(=O)[C@@H](NC(=O)[C@H](CCCCN)NC(=O)[C@H](CCCCN)NC(=O)[C@H](CC(C)C)NC(=O)[C@H](Cc1ccccc1)NC(=O)[C@@H]1CCCN1C(=O)[C@@H](C)N)C(C)C)[C@@H](C)CC)C(=O)N[C@@H](CC(C)C)C(=O)N[C@@H](CC(=O)O)C(=O)N[C@@H](CO)C(=O)NCC(=O)N[C@@H](CC(N)=O)C(=O)N[C@@H](CCCCN)C(=O)N[C@@H](CCCCN)C(=O)N[C@@H](CC(N)=O)C(=O)O | – | – | – | – | 70% | Active |
